± gives the expanded uncertainty stated by the source.
Tests used:
[1] = 101.33 kPa, Liquid; for viscosity: Capillary tube (Ostwald / Ubbelohde) method; for mass density: Speicific gravity balance
[2] = molar heat capacity at constant pressure; conditions: 101.33 kPa, Liquid, Vacuum adiabatic calorimetry
[3] = excess molar enthalpy (molar enthalpy of mixing); xn = mol fraction of the nth substance listed; conditions: 298.15 K; 101.33 kPa; Liquid; Flow calorimetry; x2 = 0

COP(=O)([O-])OC.Cn1cc[n+](C)c1 [1,3-dimethylimidazolium dimethylphosphate]
viscosity ([1]; 298.15 K): 271.86 ± 8 mPa·s
mass density ([1]; 298.15 K): 1258.7 ± 1.2 kg/m3
viscosity ([1]; 303.15 K): 188.3 ± 4.5 mPa·s
mass density ([1]; 303.15 K): 1255.9 ± 1.2 kg/m3
viscosity ([1]; 308.15 K): 139.49 ± 2.6 mPa·s
mass density ([1]; 308.15 K): 1253 ± 1.2 kg/m3
viscosity ([1]; 313.15 K): 110.25 ± 1.6 mPa·s
mass density ([1]; 313.15 K): 1249.1 ± 1.2 kg/m3
viscosity ([1]; 318.15 K): 84.44 ± 0.88 mPa·s
mass density ([1]; 318.15 K): 1245.2 ± 1.2 kg/m3
viscosity ([1]; 323.15 K): 69.99 ± 0.59 mPa·s
mass density ([1]; 323.15 K): 1241.5 ± 1.2 kg/m3
molar heat capacity at constant pressure ([2]; 298.15 K): 282.83 ± 13 J/K/mol
molar heat capacity at constant pressure ([2]; 303.15 K): 296.61 ± 13 J/K/mol
molar heat capacity at constant pressure ([2]; 313.15 K): 310.83 ± 13 J/K/mol
molar heat capacity at constant pressure ([2]; 323.15 K): 321.05 ± 13 J/K/mol

CCO [ethanol] + COP(=O)([O-])OC.Cn1cc[n+](C)c1
excess molar enthalpy [3]: 0 ± 0.0086 kcal/mol

CO [methanol] + COP(=O)([O-])OC.Cn1cc[n+](C)c1
excess molar enthalpy [3]: 0 ± 0.00526 kcal/mol

O [water] + COP(=O)([O-])OC.Cn1cc[n+](C)c1
excess molar enthalpy [3]: 0 ± 0.055 kcal/mol
